The values that follow are results of earlier work, collected in PMC9686322 (Frontiers in Neurology, 2022).

Details of data set [1]: method as in PMID 29847694.
Details of data set [2]: method as in PMID 15956161, PMID 10626097, PMID 21080186.

Molecules are shown by their SMILES.

Take `N[C@@H](Cc1ccc(O)c(O)c1)C(=O)O` [levodopa]: the Plasma half-life in data set [1] was 1.5 to 2.5 h. The “Threshold plasma concentration to achieve sustained relief of PD symptoms” value in data set [2] was “about 1,000 ng/ml”.
